Test results: publication PMC10352132 (Nature Structural & Molecular Biology, 2023)
Several values for one entry are separate records, joined by “and”; a condition that tells them apart may be missing. Equal values may be shown once. Read-outs that look alike come from different tables or passages of the source.

Experiments:
rGAT1EM [1] = biological target: T1, rGAT1EM (Rattus norvegicus, UniProt P23978, D482E/E486D/F312Y/N483D/Q485R/R491P/S490F/V488I/Y481S); assay: MS binding assay (LC-ESI-MS/MS saturation) with rGAT1EM expressing membranes; conditions: for total binding / non-specific binding: rGAT1EM; for total binding: triplicate; for non-specific binding: in the presence of 100 mM GABA
T1 sequence (P23978 with tags, fused parts or gaps F312Y/Y481S/D482E/N483D/Q485R/E486D/V488I/S490F/R491P): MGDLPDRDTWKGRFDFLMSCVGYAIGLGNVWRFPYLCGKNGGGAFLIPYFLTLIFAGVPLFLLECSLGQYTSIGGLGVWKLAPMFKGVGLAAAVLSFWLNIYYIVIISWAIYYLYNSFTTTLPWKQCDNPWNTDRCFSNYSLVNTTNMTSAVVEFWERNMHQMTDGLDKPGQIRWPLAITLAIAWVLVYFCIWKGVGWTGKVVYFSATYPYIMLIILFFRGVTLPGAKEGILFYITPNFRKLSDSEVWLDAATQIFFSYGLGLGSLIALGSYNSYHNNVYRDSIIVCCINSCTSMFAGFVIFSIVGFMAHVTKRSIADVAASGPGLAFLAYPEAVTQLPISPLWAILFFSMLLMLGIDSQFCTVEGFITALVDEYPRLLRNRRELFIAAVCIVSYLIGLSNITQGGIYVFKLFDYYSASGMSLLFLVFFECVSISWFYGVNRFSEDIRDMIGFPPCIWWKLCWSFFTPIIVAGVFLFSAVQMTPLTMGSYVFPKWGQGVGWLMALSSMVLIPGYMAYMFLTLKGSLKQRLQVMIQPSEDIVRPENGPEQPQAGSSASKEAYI
Method: (§1) The cell suspension was sonicated, the lysate was centrifuged at 21,000×g to separate the cell debris and 1 ml of the supernatant was aliquoted into each of forty 1.5 ml microfuge tubes. The membrane suspension was spun at 49,000×g for 90 min in a TLA100.1 rotor (Beckman) followed by flash-freezing and storage at −80 °C.
(§2) Binding experiments were performed as described unless stated otherwise. Aliquots of rGAT1 or hGAT1[53] membrane preparations were defrosted, diluted in 20 ml 50 mM Tris-citrate buffer containing 1 M NaCl, pH 7.1 (assay buffer) and centrifuged (50,000×g, 4 °C, 20 min). After resuspension of the pellet in assay buffer, saturation experiments with NO711 were performed in triplicate samples (about 10 µg protein) in a total assay volume of 250 µl. […] Incubation was performed for 40 min at 37 °C; subsequently, 200 µl aliquots of the binding samples were transferred onto 96-well filter plates and filtrated under vacuum, followed by rapid washing of the filters with ice-cold 0.9% NaCl (3 × 150 µl). The filter plates were then dried (60 min, 50 °C) and eluted with 3 × 100 µl methanol (containing 1.43 nM D10-NO711). […] Analysis of the binding data was performed with GraphPad Prism (version 6.0.7). The results are based on at least three independent saturation experiments for each GAT1 species.

rGAT1EM [2] = biological target: T1, rGAT1EM; assay: Inhibition of 3H-GABA uptake through rGAT1EM; type: cell-based; conditions: rGAT1EM; for 3[H]GABA uptake (% of uninhibited sample): replicates T1-T6
Method: (§3) […]. After 15 min, the uptake was arrested with 100 µl of ice-cold assay buffer and washed two times with the same buffer. The cells were solubilized for 1 h in 100 µl of 20 mM DDM and 2 mM CHS, and 50 µl of scintillant was added to the solubilized material. Counts were measured using a MicroBeta scintillation counter. Uninfected cells were used as a control. The background-subtracted dose–response curves were plotted as log [inhibitor] versus response using GraphPad Prism (version 5.0.1) and IC50 values were determined. The Ki values were calculated using Cheng-Prusoff’s equation. […] The data were analyzed using GraphPad Prism (version 5.0.1).

rGAT1WT [3] = biological target: T2, rGAT1WT (Rattus norvegicus, UniProt P23978); assay: Inhibition of 3H-GABA uptake through rGAT1WT; type: cell-based; conditions: rGAT1WT; for 3[H]GABA uptake (% of uninhibited sample): replicates T1-T6
Method: as §3

rGAT1WT [4] = biological target: T2, rGAT1WT; assay: MS binding assay (LC-ESI-MS/MS saturation) with rGAT1WT expressing membranes; conditions: for total binding / non-specific binding: rGAT1WT; for total binding: triplicate; for non-specific binding: in the presence of 100 mM GABA
Method: as §1, §2

[5] = calculated using Cheng-Prusoff's equation

SMILES: O=C(O)C1=CCCN(CCON=C(c2ccccc2)c2ccccc2)C1 [NO711]
- BMAX (MS binding assay) (rGAT1EM [1]; rGAT1EM membranes): 212.4 ± 30.3 pmol/mg protein
- Kd (rGAT1EM [1]; rGAT1EM membranes): 80 nM and 80.7 nM
- total binding (rGAT1EM [1]; c NO711 2.5 nM): 0.0853 nM and 0.0717 nM and 0.0765 nM
- total binding (rGAT1EM [1]; c NO711 5 nM): 0.175 nM and 0.157 nM and 0.182 nM
- total binding (rGAT1EM [1]; c NO711 10 nM): 0.266 nM and 0.298 nM and 0.282 nM
- total binding (rGAT1EM [1]; c NO711 20 nM): 0.414 nM and 0.405 nM and 0.393 nM
- non-specific binding (rGAT1EM [1]; c NO711 40 nM): 0.0146 nM and 0.0116 nM and 0.0148 nM
- total binding (rGAT1EM [1]; c NO711 40 nM): 0.654 nM and 0.656 nM and 0.82 nM
- non-specific binding (rGAT1EM [1]; c NO711 80 nM): 0.0357 nM and 0.0322 nM and 0.0377 nM
- total binding (rGAT1EM [1]; c NO711 80 nM): 0.825 nM and 0.877 nM and 0.867 nM
- non-specific binding (rGAT1EM [1]; c NO711 160 nM): 0.0681 nM and 0.0747 nM and 0.0767 nM
- total binding (rGAT1EM [1]; c NO711 160 nM): 1.22 nM and 1.29 nM and 1.33 nM
- non-specific binding (rGAT1EM [1]; c NO711 320 nM): 0.131 nM and 0.148 nM and 0.145 nM
- total binding (rGAT1EM [1]; c NO711 320 nM): 1.55 nM and 1.39 nM and 1.57 nM
- non-specific binding (rGAT1EM [1]; c NO711 640 nM): 0.281 nM and 0.277 nM and 0.282 nM
- total binding (rGAT1EM [1]; c NO711 640 nM): 1.85 nM and 2.19 nM and 2.02 nM
- non-specific binding (rGAT1EM [1]; c NO711 1280 nM): 0.608 nM and 0.571 nM and 0.589 nM
- total binding (rGAT1EM [1]; c NO711 1280 nM): 2.47 nM and 2.46 nM
- Ki (rGAT1EM [2]; [5]): 53 ± 4 nM
- 3[H]GABA uptake (% of uninhibited sample) (rGAT1EM [2]; inhibitor 1 nM, 0.001 µM): 100.216% and 103.239% and 95.1781% and 97.6251% and 105.398% and 98.3447%
- 3[H]GABA uptake (% of uninhibited sample) (rGAT1EM [2]; inhibitor 10 nM, 0.01 µM): 90.824% and 80.7485% and 91.6877% and 97.5891% and 93.055% and 87.4415%
- 3[H]GABA uptake (% of uninhibited sample) (rGAT1EM [2]; inhibitor 30 nM, 0.03 µM): 85.8582% and 72.9759% and 75.9266% and 79.8129% and 79.2371% and 88.8089%
- 3[H]GABA uptake (% of uninhibited sample) (rGAT1EM [2]; inhibitor 100 nM, 0.1 µM): 55.6315% and 53.1846% and 49.5862% and 54.3361% and 66.2109% and 52.321%
- 3[H]GABA uptake (% of uninhibited sample) (rGAT1EM [2]; inhibitor 500 nM, 0.5 µM): 29.8309% and 34.7967% and 26.0165% and 31.1983% and 34.4368% and 36.2361%
- 3[H]GABA uptake (% of uninhibited sample) (rGAT1EM [2]; inhibitor 1000 nM, 1 µM): 17.0205% and 18.9637% and 19.4674% and 16.1569% and 19.1796% and 13.2062%
- 3[H]GABA uptake (% of uninhibited sample) (rGAT1EM [2]; inhibitor 3000 nM, 3 µM): 9.608% and 6.153% and 8.168% and 9.104% (2×) and 11.1191%
- 3[H]GABA uptake (% of uninhibited sample) (rGAT1EM [2]; inhibitor 10000 nM, 10 µM): 5.11% and 2.879% and 4.39% and 4.246% and 2.375% and 5.038%
- 3[H]GABA uptake (% of uninhibited sample) (rGAT1EM [2]; inhibitor 50000 nM, 50 µM): 1.763% and 1.439% and 0.8276% and 1.799% and 0.8996% and 1.3674%
- 3[H]GABA uptake (% of uninhibited sample) (rGAT1EM [2]; inhibitor 100000 nM, 100 µM): 0.5757% and 0.6477% and 0.7197% and 0.5038% (2×) and 0.3598%
- IC50 (rGAT1EM [2]; read-out: IC50 of inhibition of 3H-GABA uptake): 155 nM
- IC50 (rGAT1EM [2]; read-out: inhibition potencies (K0.5)): 155 nM
- IC50 (rGAT1WT [3]): 563 nM
- Ki (rGAT1WT [3]; [5]): 325 ± 35 nM
- 3[H]GABA uptake (% of uninhibited sample) (rGAT1WT [3]; inhibitor 1 nM, 0.001 µM): 91.7343% and 91.298% and 89.6982% and 104.496% and 107.442% and 95.8793%
- 3[H]GABA uptake (% of uninhibited sample) (rGAT1WT [3]; inhibitor 10 nM, 0.01 µM): 89.0619% and 103.351% and 105.969% and 101.46% and 106.551% and 93.6068%
- 3[H]GABA uptake (% of uninhibited sample) (rGAT1WT [3]; inhibitor 30 nM, 0.03 µM): 83.2626% and 81.7356% and 90.8981% and 90.6072% and 95.952% and 94.6794%
- 3[H]GABA uptake (% of uninhibited sample) (rGAT1WT [3]; inhibitor 100 nM, 0.1 µM): 91.189% and 83.9535% and 82.5718% and 49.5576% and 81.2629% and 73.9547%
- 3[H]GABA uptake (% of uninhibited sample) (rGAT1WT [3]; inhibitor 500 nM, 0.5 µM): 55.0115% and 49.6303% and 48.5396% and 53.3026% and 54.4298% and 46.4671%
- 3[H]GABA uptake (% of uninhibited sample) (rGAT1WT [3]; inhibitor 1000 nM, 1 µM): 39.1225% and 40.286% and 41.9222% and 36.8319% and 37.6318% and 37.6682%
- 3[H]GABA uptake (% of uninhibited sample) (rGAT1WT [3]; inhibitor 3000 nM, 3 µM): 18.3614% and 14.2165% and 17.0888% and 16.5071%
- BMAX (MS binding assay) (rGAT1WT [4]; rGAT1WT membranes): 166.4 ± 44.6 pmol/mg protein
- Kd (rGAT1WT [4]; rGAT1WT membranes): 50 nM and 50.6 nM
- total binding (rGAT1WT [4]; c NO711 2.5 nM): 0.0851 nM and 0.0839 nM and 0.0992 nM
- total binding (rGAT1WT [4]; c NO711 5 nM): 0.236 nM and 0.225 nM and 0.219 nM
- total binding (rGAT1WT [4]; c NO711 10 nM): 0.387 nM and 0.361 nM
- total binding (rGAT1WT [4]; c NO711 20 nM): 0.566 nM and 0.612 nM and 0.546 nM
- non-specific binding (rGAT1WT [4]; c NO711 40 nM): 0.0154 nM and 0.0179 nM and 0.0127 nM
- total binding (rGAT1WT [4]; c NO711 40 nM): 0.967 nM and 0.954 nM and 0.928 nM
- non-specific binding (rGAT1WT [4]; c NO711 80 nM): 0.0317 nM and 0.0305 nM and 0.029 nM
- total binding (rGAT1WT [4]; c NO711 80 nM): 1.15 nM and 1.08 nM and 1.2 nM
- non-specific binding (rGAT1WT [4]; c NO711 160 nM): 0.0708 nM and 0.0715 nM and 0.07 nM
- total binding (rGAT1WT [4]; c NO711 160 nM): 1.46 nM and 1.6 nM
- non-specific binding (rGAT1WT [4]; c NO711 320 nM): 0.131 nM and 0.157 nM and 0.18 nM
- total binding (rGAT1WT [4]; c NO711 320 nM): 1.95 nM and 1.86 nM and 1.76 nM
- non-specific binding (rGAT1WT [4]; c NO711 640 nM): 0.27 nM and 0.291 nM and 0.276 nM
- total binding (rGAT1WT [4]; c NO711 640 nM): 2.12 nM and 2.1 nM and 2.38 nM
- non-specific binding (rGAT1WT [4]; c NO711 1280 nM): 0.65 nM and 0.595 nM and 0.624 nM
- total binding (rGAT1WT [4]; c NO711 1280 nM): 2.77 nM and 2.69 nM and 2.73 nM
